Test results as given in US12251373B2, “Compounds and methods of treating retinal degeneration” (CASE WESTERN RESERVE UNIVERSITY, priority 2017, dated 2025).

Columns and labels:
[1] = target: T1, human rod opsin P267L (Homo sapiens, UniProt P08100, P267L); test: Cell surface immunostain for rhodopsin mutants in NIH3T3 cells; format: cell-based; details: YC-001 treatment
T1 construct: expressed in transfected cells; host or cells: NIH3T3, transfected with pcDNA3.1-hOpsin mutant
Protocol: (§1) Human rhodopsin cDNA was placed into the pcDNA3.1(+) vector (pcDNA3.1-hOpsin). Site directed mutagenesis was performed following the QuickChange II site-directed mutagenesis kit (Agilent Technologies Inc.). Primers for the following mutations were as follows: […]
(§2) DNA vectors with rhodopsin mutations were confirmed by Sanger sequencing. After NIH3T3 cells were transfected with pcDNA3.1-hOpsin or its mutants for 24 h, these cells were resuspended and seeded into a 96-well plate with an optic bottom (Corning). […] Each condition was repeated in three wells. The treated plate was covered in tin foil and incubated at 37° C. with 5% CO2 for 24 h. Cells were then immunostained with Alexa […] 488-conjugated B6-30 anti-rhodopsin antibody. Cells were not exposed to detergents so that cell membranes were kept intact and only rhodopsin on the cell surface was immunostained. Alexa 488 fluorescence was imaged by the ImageExpress (Molecular Devices) high-content imager with a 20× objective. Medicinal Chemistry of YC-001

[2] = target: T2, human rod opsin D190N (Homo sapiens, UniProt P08100, D190N); test: as above; format: cell-based; details: YC-001 treatment
T2 construct: expressed in transfected cells; host or cells: NIH3T3, transfected with pcDNA3.1-hOpsin mutant
Protocol: as §1, §2

[3] = target: T3, human rod opsin G106R (Homo sapiens, UniProt P08100, G106R); test: as above; format: cell-based; details: YC-001 treatment
T3 construct: expressed in transfected cells; host or cells: NIH3T3, transfected with pcDNA3.1-hOpsin mutant
Protocol: as §1, §2

[4] = target: T4, human rod opsin C110Y (Homo sapiens, UniProt P08100, C110Y); test: as above; format: cell-based; details: YC-001 treatment
T4 construct: expressed in transfected cells; host or cells: NIH3T3, transfected with pcDNA3.1-hOpsin mutant
Protocol: as §1, §2

[5] = tested on: S. typhimurium TA1535, TA97a, TA98, TA100 and E. coli WP2; test: Micro Ames test; details: five bacteria strains, with or without S9
Protocol: To determine the potential genotoxicity of YC-001, a Micro Ames test was performed by the Charles River Laboratories, Inc. The S9 microsomal fraction was obtained from Moltox Molecular Toxicology, Inc. (Boone, NC, USA). A premixture was prepared including 25 μL of S9 mix (10% v/v S9 fraction in 8 mM MgCl2, 33 mM KCl, 100 mM sodium phosphate buffer, pH 7.4, +S9) or phosphate buffer (0.2 M sodium phosphate, pH 7.4, 0S9), 5 μL of bacterial culture (>1000×10^6 bacteria mL^−1) and 100 μL of molten top agar supplemented with 0.05 mM biotin and minimal histidine (0.05 mM) and minimal tryptophan (0.05 mM). The 24-well plates were prepared by adding 1.3 mL of minimal bottom agar (1.3% agar, Vogel-Bonner medium E and 0.25% glucose) to each well. A 10 μL aliquot of YC-001 working solution/negative/positive control was added to each well followed by addition of 130 μL of the premixture. The plates kept on a leveled surface for 1 h while the top agar solidified, then were incubated at 37° C. for 72 h. After this period, plates were stored at 4° C. before revertant colony counts were manually recorded using an inverted microscope. […]

O=C1OCC(c2ccc(Cl)s2)=C1c1cccs1 [YC-001]
cell surface staining of mutant opsin [1]: increased significantly | cell surface staining of mutant opsin [2]: increased significantly | cell surface staining of mutant opsin [3]: increased significantly | cell surface staining of mutant opsin [4]: not effective | Ames bacterial mutation test result [5]: negative
